Laboratory results as given in article PMC10714399, “Open Source Antibiotics: Simple Diarylimidazoles Are Potent against Methicillin-Resistant Staphylococcus aureus” (ACS Infectious Diseases, 2023).
In brackets after ≈: the same amount, converted by molar mass. Like-named read-outs stand apart in the source and are kept apart here.

Key:
[1] = test system: Staphylococcus aureus NCTC 13373 (mecA-positive; methicillin-resistant); assay: In vitro antibacterial activity, MIC (UCL School of Pharmacy assay), MRSA; type: cell-based; conditions: Staphylococcus aureus, UCL; read-out: MRSA MIC (UCL)
Summary of the method: (§1)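 Two-fold dilution MIC testing, 32–0.03 μg/mL, isosensitest broth medium. Cultures standardized by absorbance at 600 nm (0.1, ~1 × 10^8 CFU/mL) before 1:100 dilution; vancomycin included for quality control.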

[2] = test system: Enterococcus faecalis ATCC 51299 (vanA-positive; vancomycin-resistant); assay: In vitro antibacterial activity, MIC (UCL), VRE; type: cell-based; conditions: read-out: VRE MIC (UCL)
Summary of the method: as §1

[3] = Aqueous solubility; type: physicochemical; conditions: thermodynamic from solid; NEU; read-out: Aqueous Solubility (NEU)
[4] = Human plasma protein binding (PPB); type: in vitro ADME; conditions: human plasma, NEU
[5] = Human liver microsome intrinsic clearance; type: in vitro ADME; conditions: human liver microsomes, NEU; read-out: HLM CLint (NEU)
[6] = Rat hepatocyte intrinsic clearance; type: in vitro ADME; conditions: rat hepatocytes, NEU; read-out: Rat Hep CLint (NEU)
[7] = test system: MRC-5SV2 (human lung fibroblast cell line); assay: Toxicity against MRC-5SV2; type: cell-based; conditions: MRC5 cells
Procedure: (§2) ADME and toxicity for compounds were measured according to procedures outlined in the manuscript submitted in parallel to this one;2 other procedures were used for those compounds analysed by Monash University (in vitro ADME) or UCL (toxicity), both described in the main

[8] = test system: PMM (primary mouse macrophages); assay: Toxicity against PMM; type: cell-based; conditions: PMM
Procedure: as §2

[9] = test system: U2OS; assay: Toxicity against U2OS; type: cell-based; conditions: U2OS cells
From the text: Supplement id3c00286_si_002.xlsx, sheet "Series 2 Data" | column: U2OS TC50 (uM)

[10] = test system: THP1; assay: Toxicity against THP1; type: cell-based; conditions: THP1 cells
From the text: Supplement id3c00286_si_002.xlsx, sheet "Series 2 Data" | column: THP1 TC50 (uM)

[11] = test system: Staphylococcus aureus ATCC 43300 MRSA; assay: CO-ADD antibacterial assay (growth inhibition, MIC), MRSA; type: cell-based; conditions: read-out: MRSA MIC (CO-ADD)
Procedure: Hit Confirmation of active compounds by whole cell growth inhibition assays was conducted as an 8-point dose response to determine the Minimum Inhibitory Concentration (MIC), in duplicate (n=2). The inhibition of growth is measured against those microorganisms that […]
Included in the Hit Confirmation were 5 bacteria: Escherichia coli, Klebsiella pneumoniae, Acinetobacter baumannii, Pseudomonas aeruginosa and Staphylococcus aureus, and 2 fungi Candida albicans and Cryptococcus neoformans. […]
Assay Parameters Bacteria Fungi HEK293 Haemolysis […]
Duplicate (n=2) Duplicate (n=2) Duplicate (n=2) Duplicate (n=2)
QC Control MIC: Control MIC: Control CC50: Control HC10:
Non-Binding Non-Binding TC, 384-well Polypropylene
Plates Surface (NBS), Surface (NBS), black wall/clear 384-well and 384-well plate 384-well plate bottom polystyrene 384-
Cation-adjusted Yeast Nitrogen DMEM
Media Mueller Hinton Base supplemented 0.9% NaCl
Hit Confirmation outcomes are detailed in individual Project reports, personalised for each Project Submission for each CO-ADD user.
Please see your data sheet with file extension P0XXX_HC_data.xlsx, for example CO-ADD Project P0100, P0100_HC_data.xlsx
Study: HC_data ID: HC-Procedures & Materials
Date: Last updated June 2018 Confidential Page 3 of 11
(§3) (1 picture or pasted object on this page, not shown here)
Samples were provided by the collaborator and stored frozen at -20 °C. Samples were prepared in DMSO and water to a final testing concentration of 32 µg/mL or 20 µM (unless otherwise indicated in the data sheet) and serially diluted 1:2 fold for 8 times. Each sample concentration was prepared in 384-well plates, non-binding surface plate (NBS; Corning 3640) for each bacterial/fungal strain, tissue-culture treated (TC-treated; Corning 3712/3764) black for mammalian cell types and polypropylene 384-well (PP; Corning 3657) for haemolysis assays, all in duplicate (n=2), and keeping the final DMSO concentration to a maximum of 0.5%. All the sample preparation was done using liquid handling robots. […]
detailed in the Data sheet for the individual Project.
All bacteria were cultured in Cation-adjusted Mueller Hinton broth (CAMHB) at 37 °C overnight. A sample of each culture was then diluted 40-fold in fresh broth and incubated at 37 °C for 1.5-3 h. The resultant mid-log phase cultures were diluted (CFU/mL measured by OD600), then added to each well of the compound containing plates, giving a cell density of 5×10^5 CFU/mL and a total volume of 50 µL. All the plates were covered and incubated at 37 °C for 18 h without shaking.
Inhibition of bacterial growth was determined measuring absorbance at 600 nm (OD600), using a Tecan M1000 Pro monochromator plate reader. The percentage of growth inhibition was calculated for each well, using the negative control (media only) and positive control (bacteria without inhibitors) on the same plate as references.
The percentage of growth inhibition was calculated for each well, using the negative control (media only) and positive control (bacteria without inhibitors) on the same plate. The MIC […]
by an inhibition ≥ 80%. In addition, the maximal percentage of growth inhibition is reported as DMax, indicating any compounds with partial activity.
Date: Last updated June 2018 Confidential Page 5 of 11
Material Code Brand/Supplier Cat No.
Compound preparation plate, Polypropylene PP Corning 3364
Assay Plates – Antimicrobial
Non-binding surface NBS 384w Corning 3640
Assay Plates – Cytotoxicity
Tissue culture treated Black/Clear bottom 384w Corning 3712
Assay Plates - Haemolysis PP-Haem Corning 3657 […]
Growth media - bacteria CAMHB Bacto Laboratories 212322
Culture agar - fungi YPD Becton Dickinson 242720
Growth media - fungi YNB Becton Dickinson 233520
Resazurin Sigma-Aldrich R7017
Dulbecco's Modified Eagle Medium DMEM Life Technologies 11995-073
Foetal Bovine Serum FBS Bovogen FFBS-500
0.9% NaCl Saline Baxter AHF7124
Sample Name Sample ID MW Conc. Solvent Source […]

[12] = Kinetic solubility estimation using nephelometry (Monash); type: physicochemical; conditions: for solubility kinetic at 30 min: kinetic from dmso stock
Procedure: Compound in DMSO was spiked into either pH 6.5 phosphate buffer or 0.01 M HCl (approximately pH 2.0) with the final DMSO concentration being 1%. […]
b) Kinetic Solubility Estimation using Nephelometry (SolpH)
Compound in DMSO was spiked into either pH 6.5 phosphate buffer or 0.01 M HCl (approx pH 2.0) with the final
DMSO concentration being 1%. After 30 minutes had elapsed, samples were then analysed via Nephelometry to
determine a solubility range. See Bevan and Lloyd (2000) Anal Chem, 72:1781-1787. […]
(§4) In Vitro Intrinsic Clearance […]
(§5) Experimental results are tabulated on the following page(s).
as §3

[13] = Distribution coefficient estimation using chromatography, gLogD (Monash); type: physicochemical
From the text: Partition coefficient values (LogD) of the test compounds were estimated at pH 7.4 by the correlation of their chromatographic retention properties against the characteristics of a series of standard compounds with known partition coefficient values. The method employed is a gradient HPLC-based derivation of the method developed by Lombardo.[42] […]
c) Distribution Coefficient Estimation using Chromatography (gLogDpH)
Partition coefficient values (LogD) of the test compounds were estimated at pH 7.4 by correlation of their
chromatographic retention properties against the characteristics of a series of standard compounds with known
partition coefficient values. […]
as §4, §5, §3

[14] = In vitro metabolic stability, human liver microsomes (Monash); type: in vitro ADME
Procedure: (§6) The metabolic stability assay was performed by incubating each test compound with a suspension of liver microsomes (0.4 mg/mL protein, 1 μM substrate, 37 °C). Microsomes were purchased from XenoTech. The metabolic reaction was initiated by the addition of an NADPH-regenerating system and quenched at various time points over a 60 min incubation by the addition of acetonitrile containing metolazone as an internal standard. Control samples (containing no NADPH) were included (quenched at 2, 30, and 60 min) to monitor for potential degradation in the absence of cofactor. […]
(§7) d) In Vitro Metabolic Stability
(§8) The metabolic stability assay was performed by incubating each test compound with a suspension of liver
(§9) microsomes (0.4 mg/mL, 37°C). The metabolic reaction was initiated by the addition of an NADPH-regenerating
(§10) system and quenched at various time points over a 60 minute incubation by the addition of acetonitrile containing
(§11) metolazone as internal standard. Control samples (containing no NADPH) were included (quenched at 2, 30 and 60
(§12) minutes) to monitor for potential degradation in the absence of cofactor.
(§13) The human liver microsomes used in this experiment were supplied by XenoTech, lot # 1710084.The rat liver
(§14) microsomes used in this experiment were supplied by XenoTech, lot # 1610290. Microsomal incubations were
(§15) performed at a substrate concentration of 1 µM.
(§16) Data analysis and interpretation:
(§17) Substrate depletion as a function of time was analysed as described by Obach (1999) Drug Metab. Dispos., 27:1350-
(§18) 1359. Intrinsic clearance (CLint) values were classified at the limits of low and high clearance bands based on a
(§19) rearrangement of the well stirred model of hepatic elimination. It should be noted that the potential impact of
(§20) compound binding (either in microsomes or in blood) on the relationship between in vitro intrinsic clearance and
(§21) hepatic clearance in vivo has not been accounted for in these studies.
(§22) In Vitro Intrinsic Clearance
(§23) Species (µL/min/mg protein)
(§24) Low Clearance High Clearance
as §5, §3

[15] = In vitro metabolic stability, rat liver microsomes (Monash); type: in vitro ADME
Procedure: as §6, §7, §8, §9, §10, §11, §12, §13, §14, §15, §16, §17, §18, §19, §20, §21, §22, §23, §24, §5, §3

`COc1ccn2c(Nc3ccccc3F)c(-c3cnn(C)c3)nc2c1` [OSA_000855] showed an MIC [1] of over 32 mg/L, an MIC [2] of over 32 mg/L and a solubility [3] of 22 µM (≈ 7.42 µg/mL). For the same compound, the “Human PPB (NEU)” value [4] was “Low recovery,Unstable in plasma”, the microsomal CLint [5] was under 3 µL/min/mg and the hepatocyte CLint [6] was 82.3 µL/min/1e6 cells. The “MRC5 TC50” value [7] was 64 µM, the “PMM TC50” value [8] was 64 µM and the “U2OS TC50” value [9] was 50 µM. The “THP1 TC50” value [10] was 50 µM.

`c1ccc(-c2nc3ccccn3c2-c2ccc3c(c2)OCO3)nc1` [OSA_000814] showed an MIC [11] of 32 mg/L (≈ 101 µM), a solubility kinetic at 30 min ([12]; 0.01 M HCl, simulated gastric fluid, pH 2.0, read-out: Sol (pH 2.0) (Monash)) of over 0.1 mg/mL and a solubility kinetic at 30 min ([12]; pH 6.5 phosphate buffer, pH 6.5, aqueous buffer, read-out: Sol (pH 6.5) (Monash)) of 0.025 to 0.05 mg/mL (≈ 79.3 to 159 µM). For the same compound, the chromatographic logD ([13]; gradient HPLC retention against standard compounds, pH 7.4) was 1.8, the microsomal CLint at 1 µM ([14]; Monash, read-out: HLM Clint (Monash)) was 47 µL/min/mg and the half-life at 1 µM ([14]; Monash, read-out: HLM t1/2 (Monash)) was 37 min. It also gave a microsomal CLint at 1 µM ([15]; Monash, read-out: RLM Clint (Monash)) of 99 µL/min/mg and a half-life at 1 µM ([15]; Monash, read-out: RLM t1/2 (Monash)) of 18 min.

In the case of `c1ccc(-c2nc3ccccn3c2-c2ccc3c(c2)OCO3)nc1` [UNC-ALM-DAI-18], the “Sol 2.0” value ([12]; 0.01 M HCl, approx pH 2.0) was over 100 µg/mL, the “Sol 6.5” value ([12]; pH 6.5 phosphate buffer) was 25 to 50 µg/mL and the “gLogD at pH 7.4” value [13] was 1.8. The “CLint, in vitro” value ([14]; NADPH) was 47 µL/min/mg protein, the T1/2 ([14]; NADPH) was 37 min and the “CLint, in vitro” value ([15]; NADPH) was 99 µL/min/mg protein. For the same compound, the T1/2 ([15]; NADPH) was 18 min.
